{
  "source": "patent US6579886B2",
  "about": "“Selective iglur5 receptor antagonists” (Eli Lilly and Company, priority 1999, dated 2003)",
  "key": {"[1]": {"molecular_target": "T1, iGluR5 receptor (relative to iGluR2 AMPA receptor subtype) (Homo sapiens, UniProt P39086)", "T1 construct": "expressed in transfected cells; host or cells: HEK293 cells, stably transfected", "T1 sequence (P39086 31-918)": "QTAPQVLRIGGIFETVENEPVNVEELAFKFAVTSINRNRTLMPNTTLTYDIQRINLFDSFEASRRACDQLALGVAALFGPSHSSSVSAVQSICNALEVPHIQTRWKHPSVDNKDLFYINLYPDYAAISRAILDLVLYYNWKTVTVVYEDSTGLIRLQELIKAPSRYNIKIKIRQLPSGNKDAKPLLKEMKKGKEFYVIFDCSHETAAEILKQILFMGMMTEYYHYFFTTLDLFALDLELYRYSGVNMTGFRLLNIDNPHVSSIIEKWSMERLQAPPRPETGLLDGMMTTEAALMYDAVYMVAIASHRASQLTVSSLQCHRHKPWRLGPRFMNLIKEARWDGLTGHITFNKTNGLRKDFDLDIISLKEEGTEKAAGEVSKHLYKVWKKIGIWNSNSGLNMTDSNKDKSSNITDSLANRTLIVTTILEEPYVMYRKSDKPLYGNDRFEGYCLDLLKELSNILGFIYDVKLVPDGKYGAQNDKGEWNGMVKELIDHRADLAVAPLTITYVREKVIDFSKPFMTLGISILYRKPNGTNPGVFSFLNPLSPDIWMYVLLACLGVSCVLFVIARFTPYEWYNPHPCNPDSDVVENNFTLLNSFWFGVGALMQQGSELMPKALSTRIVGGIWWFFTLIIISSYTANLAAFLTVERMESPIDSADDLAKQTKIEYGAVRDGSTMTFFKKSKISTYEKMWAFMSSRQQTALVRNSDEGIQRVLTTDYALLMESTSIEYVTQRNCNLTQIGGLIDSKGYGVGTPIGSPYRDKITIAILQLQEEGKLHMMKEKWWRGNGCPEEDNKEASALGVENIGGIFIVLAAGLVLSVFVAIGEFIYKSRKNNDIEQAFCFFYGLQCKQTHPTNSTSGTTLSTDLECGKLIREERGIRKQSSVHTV", "experiment": "iGluR5 antagonist binding affinity profile: displacement of 3[H] kainate (iGluR5) versus 3[H] AMPA (iGluR2) in stably transfected HEK293 cells", "settings": "HEK293 cells stably transfected with human iGluR receptors; 3[H] kainate vs 3[H] AMPA displacement", "source_text": "To establish that the iGluR5 receptor subtype is mediating neurogenic protein extravasation, a functional characteristic of migraine, the binding affinity of the compounds of formula I to the iGluR5 receptor is first measured using standard methods. For example, the activity of compounds acting at the iGluR5 receptor can be determined by radiolabelled ligand binding studies at the cloned and expressed human iGluR5 receptor (Korczak et al., 1994, Recept. Channels 3; 41-49), and by whole cell voltage clamp electrophysiological recordings of currents in acutely isolated rat dorsal root ganglion neurons (Bleakman et al., 1996, Mol. Pharmacol. 49; 581-585). The selectivity of compounds acting at the iGluR5 receptor subtype can then be determined by comparing antagonist activity at the iGluR5 receptor with antagonist activity at other AMPA and kainate receptors. […] AMPA by increasing concentrations of antagonist is measured on iGluR1, iGluR2, iGluR3, and iGluR4 expressing cells, while displacement of ^3[H] kainate (KA) is measured on iGluR5, iGluR6, iGluR7, and KA2-expressing cells. As an indicia of selectivity, the ratio of binding affinity to the iGluR2 AMPA receptor subtype, versus the binding affinity to iGluR5 kainate receptor subtype, is also determined."}, "[2]": {"tested_on": "neurogenic dural protein extravasation", "experiment": "Animal model of dural protein extravasation (trigeminal ganglion stimulation, Evans Blue)", "type": "in vivo, rats or guinea pigs", "settings": "given orally; approximated from dose-response curve", "procedure": "Methods, 81(1,2) 19-24 (1998). For example, the following animal model is employed to determine the ability of each of the compounds of formula I to inhibit protein extravasation, an exemplary functional assay of the neuronal mechanism of migraine.\nHarlan Sprague-Dawley rats (225-325 g) or guinea pigs from Charles River Laboratories (225-325 g) are anesthetized with sodium pentobarbital intraperitoneally (65 mg/kg or 45 mg/kg respectively) and placed in a stereotaxic frame (David Kopf Instruments) with the incisor bar set at −3.5 mm for rats or −4.0 mm for guinea pigs. Following a midline sagital scalp incision, two pairs of bilateral holes are drilled through the skull (6 mm posterially, 2.0 and 4.0 mm laterally in rats; 4 mm posteriorly and 3.2 and 5.2 mm laterally in guinea pigs, all coordinates referenced to bregma). […]\nA fluorescence microscope (Zeiss) equipped with a grating monchromator and a spectrophotometer is used to quantify the amount of Evans Blue dye in each sample. An excitation wavelength of approximately 535 nm is utilized and the emission intensity at 600 nm was determined. […] This facilitates the computer-controlled movement of the stage with fluorescence measurements at 25 points ([…]) on each dural sample. The mean and standard deviation of the measurements are determined by the computer. […]"}},
  "note": "Structures can show the parent of a compound that is named as a salt.",
  "data": [
    {"smiles": "O=C(O)[C@@H]1C[C@H]2C[C@@H](Cc3ccccc3-c3nnn[nH]3)CC[C@H]2CN1", "values": [
      {"measurement": "selectivity: ratio of binding affinity for the iGluR5 receptor over the iGluR2 receptor", "setting": "[1]", "value": 5, "unit": "fold"}
    ]},
    {"smiles": "CCOC(=O)c1cn(C[C@H]2CC[C@H]3CN[C@H](C(=O)OCC)C[C@H]3C2)cn1", "note": "[Example 3, [3S,4aR,6S,8aR]-Ethyl-6-((4-ethoxycarbonyl-1H-imidazol-1-yl)methyl)-1,2,3,4,4a,5,6,7,8,8a-decahydroisoquinoline-3-carboxylate]", "values": [
      {"measurement": "ID100 (dose that inhibits the extravasation by 100%)", "setting": "[2]", "value": 0.0003, "unit": "µg/kg"}
    ]},
    {"smiles": "CCOC(=O)c1ncn(C[C@H]2CC[C@H]3CN[C@H](C(=O)OCC)C[C@H]3C2)c1C(=O)OCC", "note": "(as salt: hydrochloride) [Example 11, [3S 4aR,6S,8aR]-Ethyl 6-{[4,5-Bis(ethoxycarbonyl)-1H-imidazol-1-yl]methyl}1 2,3,4,4a,5,6,7,8,8a-decahydroisoquinoline-3-carboxylate Dihydrochloride]", "values": [
      {"measurement": "melting point", "value": "99 to 101", "unit": "°C"}
    ]}
  ]
}
